{"source": "patent US10670605B2", "about": "“Cysteine reactive probes and uses thereof” (The Scripps Research Institute, priority 2015, dated 2020)", "test_in_all_cases": "Competitive isoTOP-ABPP in situ (fragment-treated cells)", "assay_type_in_all_cases": "cell-based", "key": {"[1]": {"target": "T1, cysteines in MDA-MB-231 and Ramos cells (Homo sapiens, UniProt Q15013)", "T1 sequence (Q15013 1-274)": "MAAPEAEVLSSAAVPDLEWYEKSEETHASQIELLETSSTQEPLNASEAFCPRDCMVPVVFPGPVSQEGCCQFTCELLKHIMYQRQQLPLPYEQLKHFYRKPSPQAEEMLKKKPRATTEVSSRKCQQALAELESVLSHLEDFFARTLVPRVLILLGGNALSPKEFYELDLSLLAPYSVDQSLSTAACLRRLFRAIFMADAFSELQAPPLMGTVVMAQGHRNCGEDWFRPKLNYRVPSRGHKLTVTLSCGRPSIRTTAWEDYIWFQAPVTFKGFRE"}, "[2]": {"target": "cysteines in MDA-MB-231 and Ramos cells (Homo sapiens, UniProt Q8WWI1)", "sequence (Q8WWI1 whole entry)": "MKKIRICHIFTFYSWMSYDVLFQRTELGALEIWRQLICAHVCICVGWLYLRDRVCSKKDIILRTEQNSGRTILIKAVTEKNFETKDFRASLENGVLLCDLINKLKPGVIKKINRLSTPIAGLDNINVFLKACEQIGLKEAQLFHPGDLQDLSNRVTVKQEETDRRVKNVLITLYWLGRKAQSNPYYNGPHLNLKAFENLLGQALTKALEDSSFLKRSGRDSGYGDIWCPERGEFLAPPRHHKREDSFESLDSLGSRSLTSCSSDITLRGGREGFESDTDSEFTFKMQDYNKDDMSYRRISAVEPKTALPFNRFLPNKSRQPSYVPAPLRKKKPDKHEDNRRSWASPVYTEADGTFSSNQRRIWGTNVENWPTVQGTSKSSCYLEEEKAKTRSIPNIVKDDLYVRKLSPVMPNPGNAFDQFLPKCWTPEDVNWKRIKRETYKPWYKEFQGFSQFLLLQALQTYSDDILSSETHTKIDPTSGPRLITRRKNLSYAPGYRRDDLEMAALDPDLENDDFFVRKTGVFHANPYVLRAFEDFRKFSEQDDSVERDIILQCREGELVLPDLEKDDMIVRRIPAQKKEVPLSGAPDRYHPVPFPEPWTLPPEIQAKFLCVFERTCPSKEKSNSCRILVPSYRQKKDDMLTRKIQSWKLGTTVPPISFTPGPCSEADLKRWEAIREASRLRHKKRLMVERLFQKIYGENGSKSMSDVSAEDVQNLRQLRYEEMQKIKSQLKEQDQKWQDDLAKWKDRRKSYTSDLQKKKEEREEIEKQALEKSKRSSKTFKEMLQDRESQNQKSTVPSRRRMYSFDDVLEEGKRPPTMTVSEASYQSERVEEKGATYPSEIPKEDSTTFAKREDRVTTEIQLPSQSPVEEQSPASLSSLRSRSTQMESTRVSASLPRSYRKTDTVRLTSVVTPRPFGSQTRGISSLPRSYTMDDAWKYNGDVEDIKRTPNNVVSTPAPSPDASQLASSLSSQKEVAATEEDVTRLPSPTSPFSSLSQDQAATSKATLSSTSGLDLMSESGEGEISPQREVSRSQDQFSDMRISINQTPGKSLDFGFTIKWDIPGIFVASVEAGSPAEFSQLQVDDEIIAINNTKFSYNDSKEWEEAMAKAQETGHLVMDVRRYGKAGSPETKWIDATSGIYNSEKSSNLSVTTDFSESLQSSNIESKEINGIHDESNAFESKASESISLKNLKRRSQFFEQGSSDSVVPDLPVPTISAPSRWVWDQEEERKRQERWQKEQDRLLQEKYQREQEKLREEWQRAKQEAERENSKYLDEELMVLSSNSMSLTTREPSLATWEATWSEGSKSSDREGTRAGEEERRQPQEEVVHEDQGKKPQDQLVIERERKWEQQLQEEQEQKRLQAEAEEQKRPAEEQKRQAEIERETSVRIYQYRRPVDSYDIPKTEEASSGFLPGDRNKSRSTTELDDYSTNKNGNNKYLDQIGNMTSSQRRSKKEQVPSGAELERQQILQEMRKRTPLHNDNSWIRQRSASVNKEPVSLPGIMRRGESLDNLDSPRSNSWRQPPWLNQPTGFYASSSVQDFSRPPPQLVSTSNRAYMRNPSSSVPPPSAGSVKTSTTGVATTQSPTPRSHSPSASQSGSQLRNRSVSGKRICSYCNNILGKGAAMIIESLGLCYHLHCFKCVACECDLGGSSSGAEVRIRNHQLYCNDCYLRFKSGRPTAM"}, "[3]": {"target": "cysteines in MDA-MB-231 and Ramos cells (Homo sapiens, UniProt P27708)", "sequence (P27708 whole entry)": "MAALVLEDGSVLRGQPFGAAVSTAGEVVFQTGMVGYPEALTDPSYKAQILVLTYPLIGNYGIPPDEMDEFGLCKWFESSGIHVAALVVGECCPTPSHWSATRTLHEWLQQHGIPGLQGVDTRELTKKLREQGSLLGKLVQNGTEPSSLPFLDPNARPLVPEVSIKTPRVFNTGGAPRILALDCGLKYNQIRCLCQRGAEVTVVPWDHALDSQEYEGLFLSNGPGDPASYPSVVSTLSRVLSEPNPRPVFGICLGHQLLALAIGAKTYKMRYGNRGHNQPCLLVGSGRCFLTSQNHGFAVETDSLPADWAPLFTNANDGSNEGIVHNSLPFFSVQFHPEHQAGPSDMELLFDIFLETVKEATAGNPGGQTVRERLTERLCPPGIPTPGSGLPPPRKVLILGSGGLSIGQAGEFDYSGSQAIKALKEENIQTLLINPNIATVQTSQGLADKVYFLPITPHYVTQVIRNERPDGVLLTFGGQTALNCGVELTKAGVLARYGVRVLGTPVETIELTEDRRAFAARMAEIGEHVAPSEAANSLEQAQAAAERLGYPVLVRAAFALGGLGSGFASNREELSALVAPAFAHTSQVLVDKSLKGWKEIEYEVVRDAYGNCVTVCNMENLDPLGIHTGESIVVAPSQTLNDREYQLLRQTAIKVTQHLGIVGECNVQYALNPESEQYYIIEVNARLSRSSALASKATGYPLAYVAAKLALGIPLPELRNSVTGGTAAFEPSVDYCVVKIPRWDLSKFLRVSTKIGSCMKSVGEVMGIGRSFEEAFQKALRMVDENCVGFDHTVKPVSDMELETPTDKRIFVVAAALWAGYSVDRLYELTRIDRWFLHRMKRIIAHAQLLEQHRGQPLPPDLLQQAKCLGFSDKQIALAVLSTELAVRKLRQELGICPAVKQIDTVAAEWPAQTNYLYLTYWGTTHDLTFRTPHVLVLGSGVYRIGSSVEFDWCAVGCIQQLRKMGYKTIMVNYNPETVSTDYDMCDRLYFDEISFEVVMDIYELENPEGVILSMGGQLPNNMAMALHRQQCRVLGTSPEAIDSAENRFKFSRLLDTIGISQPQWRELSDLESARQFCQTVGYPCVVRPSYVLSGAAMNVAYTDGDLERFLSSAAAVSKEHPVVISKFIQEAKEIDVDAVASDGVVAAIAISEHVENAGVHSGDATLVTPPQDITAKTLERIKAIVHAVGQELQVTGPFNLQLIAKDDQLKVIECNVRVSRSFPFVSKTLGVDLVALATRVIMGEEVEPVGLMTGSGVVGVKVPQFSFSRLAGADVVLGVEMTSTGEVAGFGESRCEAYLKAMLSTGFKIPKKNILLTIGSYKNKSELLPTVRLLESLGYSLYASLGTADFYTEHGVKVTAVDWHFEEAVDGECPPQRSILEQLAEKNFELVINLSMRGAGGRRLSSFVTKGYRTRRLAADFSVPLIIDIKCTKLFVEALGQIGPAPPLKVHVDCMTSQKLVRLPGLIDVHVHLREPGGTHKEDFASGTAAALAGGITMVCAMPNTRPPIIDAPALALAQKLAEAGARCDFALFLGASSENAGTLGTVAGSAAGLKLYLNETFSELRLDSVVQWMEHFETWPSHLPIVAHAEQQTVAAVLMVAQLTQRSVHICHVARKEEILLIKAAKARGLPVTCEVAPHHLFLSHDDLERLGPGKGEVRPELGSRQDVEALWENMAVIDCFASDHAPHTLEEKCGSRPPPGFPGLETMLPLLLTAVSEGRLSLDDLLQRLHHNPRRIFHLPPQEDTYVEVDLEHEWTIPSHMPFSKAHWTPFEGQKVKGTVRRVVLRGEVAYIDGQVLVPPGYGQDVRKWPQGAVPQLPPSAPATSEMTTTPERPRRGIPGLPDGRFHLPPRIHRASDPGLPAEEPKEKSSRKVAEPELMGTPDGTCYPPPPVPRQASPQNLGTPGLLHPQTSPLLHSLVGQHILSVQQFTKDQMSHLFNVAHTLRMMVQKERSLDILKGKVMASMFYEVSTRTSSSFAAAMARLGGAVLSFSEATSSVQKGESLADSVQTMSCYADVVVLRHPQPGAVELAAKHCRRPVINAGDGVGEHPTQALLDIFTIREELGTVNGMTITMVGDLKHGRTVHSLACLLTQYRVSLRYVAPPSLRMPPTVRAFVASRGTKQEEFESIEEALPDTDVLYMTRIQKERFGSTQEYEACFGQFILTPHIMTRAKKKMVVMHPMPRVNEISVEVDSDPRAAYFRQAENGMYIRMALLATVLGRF", "conditions": "200 μM, insitu"}, "[4]": {"target": "T2, cysteines in MDA-MB-231 and Ramos cells (Homo sapiens, UniProt Q5T440)", "T2 sequence (Q5T440 40-356)": "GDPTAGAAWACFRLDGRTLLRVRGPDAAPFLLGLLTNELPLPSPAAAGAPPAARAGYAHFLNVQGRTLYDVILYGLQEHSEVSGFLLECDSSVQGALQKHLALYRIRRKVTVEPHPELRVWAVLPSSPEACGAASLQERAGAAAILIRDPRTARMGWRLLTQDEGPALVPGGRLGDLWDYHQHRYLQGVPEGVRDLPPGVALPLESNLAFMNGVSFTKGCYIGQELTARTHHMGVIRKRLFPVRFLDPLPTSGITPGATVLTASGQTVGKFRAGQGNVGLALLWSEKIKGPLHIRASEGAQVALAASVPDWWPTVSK"}, "[5]": {"target": "cysteines in MDA-MB-231 and Ramos cells (Homo sapiens, UniProt P14635)", "sequence (P14635 whole entry)": "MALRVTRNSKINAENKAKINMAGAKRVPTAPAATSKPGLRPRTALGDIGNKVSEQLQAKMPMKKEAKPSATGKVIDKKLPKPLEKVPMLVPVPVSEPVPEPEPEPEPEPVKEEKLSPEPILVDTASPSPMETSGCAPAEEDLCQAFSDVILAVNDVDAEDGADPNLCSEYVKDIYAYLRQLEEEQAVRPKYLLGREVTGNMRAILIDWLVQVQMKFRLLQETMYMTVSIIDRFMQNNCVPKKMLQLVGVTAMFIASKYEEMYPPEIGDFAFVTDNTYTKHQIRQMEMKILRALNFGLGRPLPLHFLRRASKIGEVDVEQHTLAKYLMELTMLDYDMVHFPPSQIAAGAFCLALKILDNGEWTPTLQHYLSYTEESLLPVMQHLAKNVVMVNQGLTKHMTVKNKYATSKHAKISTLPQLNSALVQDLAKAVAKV"}, "[6]": {"target": "T3, cysteines in MDA-MB-231 and Ramos cells (Homo sapiens, UniProt O14733)", "T3 sequence (O14733 1-419)": "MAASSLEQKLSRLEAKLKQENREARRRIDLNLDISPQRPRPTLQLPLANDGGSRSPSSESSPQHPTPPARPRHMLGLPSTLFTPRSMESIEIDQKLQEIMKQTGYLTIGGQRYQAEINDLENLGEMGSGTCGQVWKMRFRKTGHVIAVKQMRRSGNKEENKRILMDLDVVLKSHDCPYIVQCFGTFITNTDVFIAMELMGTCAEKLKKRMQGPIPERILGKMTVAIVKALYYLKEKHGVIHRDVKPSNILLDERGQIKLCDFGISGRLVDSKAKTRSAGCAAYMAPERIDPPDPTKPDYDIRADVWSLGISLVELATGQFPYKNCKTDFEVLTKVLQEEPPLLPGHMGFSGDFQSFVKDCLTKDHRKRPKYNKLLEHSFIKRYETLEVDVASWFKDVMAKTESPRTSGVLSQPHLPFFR", "conditions": "200 μM, insitu"}, "[7]": {"target": "T4, cysteines in MDA-MB-231 and Ramos cells (Homo sapiens, UniProt Q15345)", "T4 sequence (Q15345 1-812)": "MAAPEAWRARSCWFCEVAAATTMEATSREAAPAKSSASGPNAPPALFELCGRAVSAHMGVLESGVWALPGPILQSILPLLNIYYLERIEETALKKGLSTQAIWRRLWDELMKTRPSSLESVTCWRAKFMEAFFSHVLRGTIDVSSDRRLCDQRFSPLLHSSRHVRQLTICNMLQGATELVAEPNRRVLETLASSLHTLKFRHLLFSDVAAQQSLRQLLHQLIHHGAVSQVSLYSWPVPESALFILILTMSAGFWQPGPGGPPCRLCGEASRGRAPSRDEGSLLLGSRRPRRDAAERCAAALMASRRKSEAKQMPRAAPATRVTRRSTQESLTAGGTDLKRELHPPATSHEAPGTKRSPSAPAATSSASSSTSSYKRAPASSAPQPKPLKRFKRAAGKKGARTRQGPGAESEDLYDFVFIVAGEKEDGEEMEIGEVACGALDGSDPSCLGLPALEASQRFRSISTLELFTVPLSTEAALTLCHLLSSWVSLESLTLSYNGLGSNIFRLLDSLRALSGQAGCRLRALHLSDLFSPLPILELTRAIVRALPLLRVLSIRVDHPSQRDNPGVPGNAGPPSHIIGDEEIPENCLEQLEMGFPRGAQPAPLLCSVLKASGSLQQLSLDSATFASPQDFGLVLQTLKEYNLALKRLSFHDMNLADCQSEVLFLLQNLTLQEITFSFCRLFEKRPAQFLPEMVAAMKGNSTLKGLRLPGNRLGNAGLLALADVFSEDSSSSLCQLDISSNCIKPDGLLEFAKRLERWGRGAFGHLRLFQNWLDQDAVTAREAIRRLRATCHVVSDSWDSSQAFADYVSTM"}}, "data": [{"smiles": "CC(C)CCOCCNC(=O)CCl", "note": "[compound 27]", "values": [{"measurement": "isoTOP-ABPP ratio Q15013_C124", "setting": "[1]; 200 μM, insitu, 231", "result": 1.0}, {"measurement": "isoTOP-ABPP ratio Q8WWI1_C228", "setting": "[2]; 200 μM, insitu, 231", "result": 0.8}, {"measurement": "isoTOP-ABPP ratio P27708_C73", "setting": "[3]; 231", "result": 0.5}]}, {"smiles": "COc1cc2c(cc1OC)CN(C(=O)CCl)CC2", "note": "[compound 8]", "values": [{"measurement": "isoTOP-ABPP reactivity Q15013_C124 MAD2L1BP", "setting": "[1]; 200 μM, insitu, 231", "result": 5.4}, {"measurement": "isoTOP-ABPP reactivity P27708_C73 CAD", "setting": "[3]; 231", "result": 20.0}]}, {"smiles": "COc1ccc(C2CC(c3cccs3)=NN2C(=O)CCl)cc1", "note": "(stereo not shown) [compound 4]", "values": [{"measurement": "isoTOP-ABPP reactivity Q15013_C124 MAD2L1BP", "setting": "[1]; 100 μM in situ 231", "result": 13.0}, {"measurement": "isoTOP-ABPP reactivity Q5T440_C170 IBA57", "setting": "[4]; 100 μM in situ 231", "result": 1.5}]}, {"smiles": "O=C(CCl)Nc1cccc2ncccc12", "note": "[compound 51]", "values": [{"measurement": "isoTOP-ABPP ratio Q15013_C124", "setting": "[1]; 200 μM, insitu, 231", "result": 1.2}]}, {"smiles": "COc1ccccc1OCCNC(=O)CCl", "note": "[compound 28]", "values": [{"measurement": "isoTOP-ABPP ratio Q15013_C124", "setting": "[1]; 200 μM, insitu, 231", "result": 1.0}]}, {"smiles": "O=C(CCl)N1CCN(S(=O)(=O)c2ccccc2F)CC1", "note": "[compound 10]", "values": [{"measurement": "isoTOP-ABPP ratio, cysteine P14635_C238", "setting": "[5]; 200 μM, insitu, 231", "result": 6.7}, {"measurement": "isoTOP-ABPP ratio Q8WWI1_C228", "setting": "[2]; 200 μM, insitu, 231", "result": 17.2}, {"measurement": "isoTOP-ABPP ratio Q5T440_C170", "setting": "[4]; 200 μM, insitu, 231", "result": 5.7}, {"measurement": "isoTOP-ABPP ratio, cysteine O14733_C131", "setting": "[6]; 231", "result": 1.8}]}, {"smiles": "CC1CCc2ccccc2N1C(=O)CCl", "note": "(stereo not shown) [compound 45]", "values": [{"measurement": "isoTOP-ABPP ratio Q15013_C124", "setting": "[1]; 200 μM, insitu, 231", "result": 20.0}, {"measurement": "isoTOP-ABPP ratio Q8WWI1_C228", "setting": "[2]; 200 μM, insitu, 231", "result": 20.0}, {"measurement": "isoTOP-ABPP ratio Q5T440_C170", "setting": "[4]; 200 μM, insitu, 231", "result": 3.5}]}, {"smiles": "Cc1ccc(C=C(C#N)C(=O)NCCN2CCOCC2)cc1", "note": "[compound 41]", "values": [{"measurement": "isoTOP-ABPP ratio P14635_C238", "setting": "[5]; 200 μM, insitu, 231", "result": 0.5}, {"measurement": "isoTOP-ABPP ratio Q8WWI1_C228", "setting": "[2]; 200 μM, insitu, 231", "result": 0.8}, {"measurement": "isoTOP-ABPP ratio Q5T440_C170", "setting": "[4]; 200 μM, insitu, 231", "result": 0.7}, {"measurement": "isoTOP-ABPP ratio P27708_C73", "setting": "[3]; 231", "result": 0.7}, {"measurement": "isoTOP-ABPP ratio Q15345_C297", "setting": "[7]; 200 μM, insitu, 231", "result": 0.8}, {"measurement": "isoTOP-ABPP ratio O14733_C131", "setting": "[6]; 231", "result": 0.8}]}, {"smiles": "COc1ccc2c(c1)CCCN2C(=O)CCl", "note": "[compound 2]", "values": [{"measurement": "isoTOP-ABPP reactivity Q5T440_C170 IBA57", "setting": "[4]; 200 μM, insitu, 231", "result": 14.0}, {"measurement": "isoTOP-ABPP reactivity P27708_C73 CAD", "setting": "[3]; 231", "result": 3.1}]}, {"smiles": "C=CC(=O)Nc1cc(F)c(N2CCN(C(=O)OC(C)(C)C)CC2)c(F)c1", "note": "[compound 38]", "values": [{"measurement": "isoTOP-ABPP ratio P14635_C238", "setting": "[5]; 200 μM, insitu, 231", "result": 1.8}, {"measurement": "isoTOP-ABPP ratio Q15345_C297", "setting": "[7]; 200 μM, insitu, 231", "result": 1.4}, {"measurement": "isoTOP-ABPP ratio O14733_C131", "setting": "[6]; 231", "result": 20.0}]}, {"smiles": "O=C(CCl)NC(=O)NC12CC3CC(CC(C3)C1)C2", "note": "[compound 12]", "values": [{"measurement": "isoTOP-ABPP ratio Q8WWI1_C228", "setting": "[2]; 200 μM, insitu, 231", "result": 20.0}, {"measurement": "isoTOP-ABPP ratio, cysteine O14733_C131", "setting": "[6]; 231", "result": 1.7}]}, {"smiles": "C=CC(=O)N(Cc1cccnc1)c1cc(C(F)(F)F)cc(C(F)(F)F)c1", "note": "[compound 31]", "values": [{"measurement": "isoTOP-ABPP ratio Q15345_C297", "setting": "[7]; 200 μM, insitu, 231", "result": 0.9}]}, {"smiles": "Cn1cc(S(=O)(=O)N2CCOCC2)cc1C(=O)NC(=O)CCl", "note": "[compound 11]", "values": [{"measurement": "isoTOP-ABPP ratio, cysteine P14635_C238", "setting": "[5]; 100 μM in situ 231", "result": 0.7}, {"measurement": "isoTOP-ABPP ratio, cysteine Q15013_C124", "setting": "[1]; 100 μM in situ 231", "result": 1.0}, {"measurement": "isoTOP-ABPP ratio Q8WWI1_C228", "setting": "[2]; 100 μM in situ 231", "result": 1.3}, {"measurement": "isoTOP-ABPP ratio, cysteine Q15345_C297", "setting": "[7]; 100 μM in situ 231", "result": 1.1}]}, {"smiles": "O=C(CCl)NCCc1c[nH]c2ccccc12", "note": "[compound 13]", "values": [{"measurement": "isoTOP-ABPP ratio, cysteine P14635_C238", "setting": "[5]; 200 μM, insitu, 231", "result": 1.3}, {"measurement": "isoTOP-ABPP ratio, cysteine P14635_C238", "setting": "[5]; 200 μM, insitu, ramos", "result": 1.5}, {"measurement": "isoTOP-ABPP ratio Q8WWI1_C228", "setting": "[2]; 200 μM, insitu, 231", "result": 2.0}, {"measurement": "isoTOP-ABPP ratio Q8WWI1_C228", "setting": "[2]; 200 μM, insitu, ramos", "result": 1.0}, {"measurement": "isoTOP-ABPP ratio Q5T440_C170", "setting": "[4]; 200 μM, insitu, 231", "result": 1.2}, {"measurement": "isoTOP-ABPP ratio, cysteine P27708_C73", "setting": "[3]; ramos", "result": 5.0}, {"measurement": "isoTOP-ABPP ratio, cysteine Q15345_C297", "setting": "[7]; 200 μM, insitu, 231", "result": 1.6}, {"measurement": "isoTOP-ABPP ratio, cysteine O14733_C131", "setting": "[6]; ramos", "result": 1.6}]}, {"smiles": "O=C(CCl)N1CCN(CC(=O)N2CCOCC2)CC1", "note": "[compound 29]", "values": [{"measurement": "isoTOP-ABPP ratio Q8WWI1_C228", "setting": "[2]; 200 μM, insitu, ramos", "result": 1.0}, {"measurement": "isoTOP-ABPP ratio Q5T440_C170", "setting": "[4]; 200 μM, insitu, ramos", "result": 1.3}, {"measurement": "isoTOP-ABPP ratio P27708_C73", "setting": "[3]; ramos", "result": 1.8}, {"measurement": "isoTOP-ABPP ratio O14733_C131", "setting": "[6]; ramos", "result": 1.0}]}, {"smiles": "O=C(CCl)NC12CC3CC(CC(C3)C1)C2", "note": "[compound 21]", "values": [{"measurement": "isoTOP-ABPP ratio Q8WWI1_C228", "setting": "[2]; 200 μM, insitu, 231", "result": 1.1}, {"measurement": "isoTOP-ABPP ratio Q5T440_C170", "setting": "[4]; 200 μM, insitu, 231", "result": 1.6}, {"measurement": "isoTOP-ABPP ratio, cysteine P27708_C73", "setting": "[3]; 231", "result": 0.6}, {"measurement": "isoTOP-ABPP ratio, cysteine Q15345_C297", "setting": "[7]; 200 μM, insitu, 231", "result": 1.1}, {"measurement": "isoTOP-ABPP ratio, cysteine O14733_C131", "setting": "[6]; 231", "result": 0.7}]}, {"smiles": "O=C(CCl)N1CCC(Cc2ccccc2)CC1", "note": "[compound 9]", "values": [{"measurement": "isoTOP-ABPP reactivity P14635_C238 CCNB1", "setting": "[5]; 200 μM, insitu, 231", "result": 3.7}]}]}
